Experimental data reported in ChEMBL document CHEMBL4396928, “Discovery of Selective, Orally Bioavailable Pyrazolopyridine Inhibitors of Protein Kinase Cθ (PKCθ) That Ameliorate Symptoms of Experimental Autoimmune Encephalomyelitis” (ACS Med Chem Lett, 2019).
≈ marks a conversion by molar mass, not a printed value. Calls of active or inactive are those of the source. No cut-off for these calls is given here.

What was measured:
Cytochrome P450 3A4 = Cytochrome P450 3A4 (Homo sapiens, UniProt P08684); assay: Inhibition of CYP3A4 (unknown origin) at 22 uM; assay type: ADME
Cytochrome P450 3A4, sequence (P08684 whole entry): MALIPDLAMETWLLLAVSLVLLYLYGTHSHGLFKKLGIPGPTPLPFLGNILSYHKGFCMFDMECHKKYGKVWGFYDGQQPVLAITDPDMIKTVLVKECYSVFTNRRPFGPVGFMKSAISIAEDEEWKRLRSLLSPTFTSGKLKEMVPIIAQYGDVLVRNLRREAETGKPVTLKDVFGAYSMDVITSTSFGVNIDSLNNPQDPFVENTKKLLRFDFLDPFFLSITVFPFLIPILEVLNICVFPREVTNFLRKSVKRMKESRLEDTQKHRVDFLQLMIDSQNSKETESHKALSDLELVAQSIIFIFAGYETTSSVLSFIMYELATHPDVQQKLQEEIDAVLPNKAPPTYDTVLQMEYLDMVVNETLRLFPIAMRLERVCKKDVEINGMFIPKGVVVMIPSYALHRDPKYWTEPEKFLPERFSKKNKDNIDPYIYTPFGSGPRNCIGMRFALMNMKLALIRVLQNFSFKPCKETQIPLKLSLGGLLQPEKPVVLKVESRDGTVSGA

[1] = Lipophilicity, logD of compound; assay type: physicochemical; conditions: octanol/water
[2] = molecular target: Protein kinase C alpha type (Homo sapiens, UniProt P17252); assay: Inhibition of recombinant full length PKC alpha (unknown origin) using RRRRRKGSFKRKA peptide as substrate measured after 15 mins in presence of ATP by spectrophotometric analysis
[3] = Stability of compound in human liver microsomes assessed as compound remaining at 30 mins; assay type: ADME, Microsome; conditions: read-out: Stability
[4] = Dissociation constant, pKa of compound; assay type: physicochemical
PBMC = assay: Inhibition of IL-2 secretion from human PBMC cells stimulated with anti-CD3/CD28 measured after 24 hrs by bead-based FLISA; assay type: functional, cell-based
[5] = molecular target: Voltage-gated inwardly rectifying potassium channel KCNH2 (Homo sapiens, UniProt Q12809); assay: Inhibition of human ERG
Voltage-gated inwardly rectifying potassium channel KCNH2, sequence (Q12809 whole entry): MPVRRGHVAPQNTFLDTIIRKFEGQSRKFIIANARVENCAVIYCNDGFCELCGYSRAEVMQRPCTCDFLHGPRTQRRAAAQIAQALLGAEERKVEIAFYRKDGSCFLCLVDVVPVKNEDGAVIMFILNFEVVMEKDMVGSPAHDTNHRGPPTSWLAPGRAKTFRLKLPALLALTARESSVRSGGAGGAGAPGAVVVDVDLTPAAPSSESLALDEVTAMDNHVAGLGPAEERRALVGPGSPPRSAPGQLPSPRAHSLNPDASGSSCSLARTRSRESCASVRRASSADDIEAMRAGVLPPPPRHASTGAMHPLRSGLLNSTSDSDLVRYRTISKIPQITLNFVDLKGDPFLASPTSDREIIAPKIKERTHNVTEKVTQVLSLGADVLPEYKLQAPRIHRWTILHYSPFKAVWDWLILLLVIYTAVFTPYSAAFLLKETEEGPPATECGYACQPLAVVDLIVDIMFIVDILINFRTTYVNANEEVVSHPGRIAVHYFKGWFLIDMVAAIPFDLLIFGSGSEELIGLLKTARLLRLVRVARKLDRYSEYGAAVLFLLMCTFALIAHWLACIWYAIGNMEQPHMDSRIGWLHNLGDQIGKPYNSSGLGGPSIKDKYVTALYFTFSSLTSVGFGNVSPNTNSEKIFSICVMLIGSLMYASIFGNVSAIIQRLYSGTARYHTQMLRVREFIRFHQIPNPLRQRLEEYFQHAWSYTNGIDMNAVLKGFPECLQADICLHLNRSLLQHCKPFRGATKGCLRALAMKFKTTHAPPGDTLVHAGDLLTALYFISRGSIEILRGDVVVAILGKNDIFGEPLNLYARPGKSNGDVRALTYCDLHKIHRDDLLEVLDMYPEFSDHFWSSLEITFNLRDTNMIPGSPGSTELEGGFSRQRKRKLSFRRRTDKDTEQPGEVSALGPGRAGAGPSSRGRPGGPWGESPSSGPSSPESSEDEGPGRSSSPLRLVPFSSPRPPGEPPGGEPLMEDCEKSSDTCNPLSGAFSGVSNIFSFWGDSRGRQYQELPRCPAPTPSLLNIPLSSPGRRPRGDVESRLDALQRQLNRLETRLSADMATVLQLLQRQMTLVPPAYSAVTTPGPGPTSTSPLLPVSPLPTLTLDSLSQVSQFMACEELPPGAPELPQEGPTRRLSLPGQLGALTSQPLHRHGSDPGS

[6] = molecular target: Protein kinase C delta type (Homo sapiens, UniProt Q05655); assay: Inhibition of recombinant full length PKC delta (unknown origin) using ERMRPRKR- QGSVRRRV peptide as substrate measured after 15 mins in presence of ATP by spectrophotometric analysis
Protein kinase C delta type, sequence (Q05655 whole entry): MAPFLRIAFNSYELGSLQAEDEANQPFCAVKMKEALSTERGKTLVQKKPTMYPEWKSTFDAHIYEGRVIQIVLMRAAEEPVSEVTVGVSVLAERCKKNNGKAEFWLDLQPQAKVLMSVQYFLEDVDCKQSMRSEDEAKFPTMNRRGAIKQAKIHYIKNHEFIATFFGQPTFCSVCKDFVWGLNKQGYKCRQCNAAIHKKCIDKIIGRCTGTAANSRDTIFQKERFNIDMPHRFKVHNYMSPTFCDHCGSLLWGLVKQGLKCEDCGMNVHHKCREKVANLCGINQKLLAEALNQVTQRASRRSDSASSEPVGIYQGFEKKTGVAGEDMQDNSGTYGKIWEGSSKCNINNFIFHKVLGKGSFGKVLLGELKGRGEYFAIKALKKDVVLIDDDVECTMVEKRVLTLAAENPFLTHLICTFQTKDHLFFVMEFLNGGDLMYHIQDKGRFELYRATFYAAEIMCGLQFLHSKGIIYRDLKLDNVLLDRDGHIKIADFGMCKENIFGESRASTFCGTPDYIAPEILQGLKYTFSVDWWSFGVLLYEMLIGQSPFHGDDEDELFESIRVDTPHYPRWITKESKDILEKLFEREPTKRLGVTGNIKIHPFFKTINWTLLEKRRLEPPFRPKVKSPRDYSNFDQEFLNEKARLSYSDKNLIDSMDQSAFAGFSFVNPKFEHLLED

HFL1 = assay: Cytotoxicity against human HFL1 cells assessed as growth inhibition measured after 48 hrs by 3H-thymidine incorporation assay; assay type: cell-based
[7] = molecular target: Protein kinase C theta type (Homo sapiens, UniProt Q04759); assay: Inhibition of human recombinant full length His tagged PKC theta expressed in baculovirus using ERMRPRKRQGSVRRRV peptide as substrate incubated for 60 mins in presence of [33P] gammaATP by microbeta liquid scintillation counter
Protein kinase C theta type, sequence (Q04759 whole entry): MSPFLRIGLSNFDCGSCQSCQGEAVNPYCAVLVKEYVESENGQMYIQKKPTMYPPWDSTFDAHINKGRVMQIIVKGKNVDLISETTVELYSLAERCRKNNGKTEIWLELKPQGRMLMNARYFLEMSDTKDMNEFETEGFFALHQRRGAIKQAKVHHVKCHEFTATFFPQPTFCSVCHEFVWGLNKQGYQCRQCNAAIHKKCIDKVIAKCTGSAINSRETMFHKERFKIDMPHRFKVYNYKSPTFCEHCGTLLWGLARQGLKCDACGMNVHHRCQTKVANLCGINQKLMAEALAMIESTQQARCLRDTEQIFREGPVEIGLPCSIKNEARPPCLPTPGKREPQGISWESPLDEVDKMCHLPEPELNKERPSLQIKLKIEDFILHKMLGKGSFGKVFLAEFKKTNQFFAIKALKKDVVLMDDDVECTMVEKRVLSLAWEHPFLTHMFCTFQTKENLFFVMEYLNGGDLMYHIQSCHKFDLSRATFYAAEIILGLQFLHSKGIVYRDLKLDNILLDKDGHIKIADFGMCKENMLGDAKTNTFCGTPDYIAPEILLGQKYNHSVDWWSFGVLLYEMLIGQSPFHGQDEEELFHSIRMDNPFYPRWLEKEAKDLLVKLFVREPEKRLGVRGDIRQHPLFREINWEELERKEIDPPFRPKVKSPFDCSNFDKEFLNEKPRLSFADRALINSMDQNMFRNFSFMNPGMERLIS

Cytochrome P450 2C9 = Cytochrome P450 2C9 (Homo sapiens, UniProt P11712); assay: Inhibition of CYP2C9 (unknown origin) at > 30 uM; assay type: ADME
Cytochrome P450 2C9, sequence (P11712 whole entry): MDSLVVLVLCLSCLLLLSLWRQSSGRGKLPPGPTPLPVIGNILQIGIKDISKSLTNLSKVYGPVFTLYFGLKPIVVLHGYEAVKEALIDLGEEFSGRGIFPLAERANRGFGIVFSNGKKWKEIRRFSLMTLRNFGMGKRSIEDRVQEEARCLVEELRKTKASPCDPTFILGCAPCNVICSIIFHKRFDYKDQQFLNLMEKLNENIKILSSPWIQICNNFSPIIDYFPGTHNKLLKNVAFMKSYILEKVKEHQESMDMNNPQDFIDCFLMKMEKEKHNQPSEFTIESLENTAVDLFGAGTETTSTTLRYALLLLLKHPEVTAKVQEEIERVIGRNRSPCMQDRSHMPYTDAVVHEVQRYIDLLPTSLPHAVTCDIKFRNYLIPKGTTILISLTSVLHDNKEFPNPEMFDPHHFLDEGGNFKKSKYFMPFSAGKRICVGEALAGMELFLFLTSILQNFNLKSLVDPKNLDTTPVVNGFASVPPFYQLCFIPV

[8] = Stability of compound in rat liver microsomes assessed as compound remaining at 30 mins; assay type: ADME, Microsome; conditions: read-out: Stability
Cytochrome P450 2D6 = Cytochrome P450 2D6 (Homo sapiens, UniProt P10635); assay: Inhibition of CYP2D6 (unknown origin) at > 30 uM; assay type: ADME
[9] = Unbound drug level in brain of BALB/c mouse at 100 mg/kg, po measured after 3 hrs; assay type: ADME, organism-based; conditions: in vivo
[10] = Unbound drug level in brain of BALB/c mouse at 50 mg/kg, po measured after 3 hrs; assay type: ADME, organism-based; conditions: in vivo
[11] = Permeability across apical to basolateral side in human Caco2 cells measured at 120 mins by LC-MS/MS analysis; assay type: ADME, cell-based; conditions: Caco-2, read-out: permeability
Mus musculus [12] = assay: In vivo inhibition of Il-2 production in BALB/c mouse at 25 to 100 mg/lg, po measured after 3 hrs; assay type: functional, organism-based
[13] = Clearance in iv dosed cynomolgus monkey; assay type: ADME, organism-based, Macaca fascicularis; conditions: in vivo
[14] = Clerance in iv dosed dog; assay type: ADME, organism-based, Canis lupus familiaris; conditions: in vivo
[15] = Thermodynamic solubility of compound in sodium phosphate buffer at pH 7.4; assay type: physicochemical; conditions: read-out: Therm_solubility
[16] = molecular target: Protein kinase C beta type (Homo sapiens, UniProt P05771); assay: Inhibition of human PKC beta
Protein kinase C beta type, sequence (P05771 whole entry): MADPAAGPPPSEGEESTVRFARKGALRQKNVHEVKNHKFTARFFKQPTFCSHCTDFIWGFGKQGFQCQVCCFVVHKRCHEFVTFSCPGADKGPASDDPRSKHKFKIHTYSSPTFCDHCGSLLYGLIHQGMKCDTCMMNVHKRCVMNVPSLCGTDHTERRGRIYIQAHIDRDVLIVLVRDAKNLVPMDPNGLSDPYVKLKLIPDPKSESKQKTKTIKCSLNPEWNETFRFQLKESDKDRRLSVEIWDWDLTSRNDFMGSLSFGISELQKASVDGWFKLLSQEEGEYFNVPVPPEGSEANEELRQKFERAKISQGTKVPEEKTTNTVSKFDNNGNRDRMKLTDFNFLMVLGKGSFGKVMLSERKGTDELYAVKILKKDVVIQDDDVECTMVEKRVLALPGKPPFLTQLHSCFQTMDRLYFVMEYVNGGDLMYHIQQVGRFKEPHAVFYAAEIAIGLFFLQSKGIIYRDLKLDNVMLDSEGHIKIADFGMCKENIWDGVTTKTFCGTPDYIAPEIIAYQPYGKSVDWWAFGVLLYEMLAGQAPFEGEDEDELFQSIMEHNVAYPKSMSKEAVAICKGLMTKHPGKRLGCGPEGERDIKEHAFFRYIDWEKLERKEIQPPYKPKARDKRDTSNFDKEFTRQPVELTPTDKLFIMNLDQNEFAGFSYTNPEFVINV

[17] = Half-life in iv dosed cynomolgus monkey; assay type: ADME, organism-based, Macaca fascicularis; conditions: in vivo
[18] = Clearance in iv dosed rat; assay type: ADME, organism-based; conditions: in vivo
[19] = Efflux ratio of permeability in human Caco2 cells by LC-MS/MS analysis; assay type: ADME, cell-based; conditions: Caco-2
[20] = Half-life in iv dosed dog; assay type: ADME, organism-based, Canis lupus familiaris; conditions: in vivo
[21] = Half-life in iv dosed rat; assay type: ADME, organism-based; conditions: in vivo
Mus musculus [22] = assay: Anti-inflammatory activity in C57BL/6 mouse model of MOG (35 to 55 residues)/pertussis toxin/complete Freund's adjuvant-induced autoimmune encephalomyelitis assessed as reduction in development of clinical symptoms at 50 mg/kg, po bid starting from day 8 post immunization upto 10 days; assay type: functional, organism-based
[23] = Oral bioavailability in rat; assay type: ADME, organism-based; conditions: in vivo
[24] = Oral bioavailability in mouse; assay type: ADME, organism-based; conditions: in vivo
[25] = Inhibition of CD3/CD28 stimulated IL-17 secretion from human Th17 cells measured after 24 hrs by ELISA

SMILES	logD [1]	Ki [2]	remaining at 0.5 h [3]	pKa [4]	IC50 (PBMC)	IC50 [5]	Ki [6]	IC50 (HFL1)	Ki [7]	remaining at 0.5 h [8]	further results
Cc1cc(-c2ccnc3[nH]nc(C(F)(F)F)c23)cc(C2(CN)COC2)c1	2.2	286 nM	86%	7.9	450 nM	> 10000 nM	542 nM	2500 nM	8 nM	59%	inhibition (INH) (Cytochrome P450 3A4): Active; inhibition (INH) (Cytochrome P450 2C9): Active; inhibition (INH) (Cytochrome P450 2D6): Active
NCC1(c2cccc(-c3ccnc4[nH]nc(C(F)(F)F)c34)c2)COC1	1.7	1020 nM	100%	7.6	210 nM	> 10000 nM	392 nM	> 10000 nM	6 nM	77%	Drug uptake(free) [9]: 0.4 µM; Drug uptake(free) [10]: 0.19 µM; Papp A→B at 2 h [11]: 19 ×10⁻⁶ cm/s; inhibition (Mus musculus [12]): Active; clearance [13]: 9 mL/min/kg; clearance [14]: 12 mL/min/kg; solubility thermodynamic [15]: 515 µM (≈ 179 µg/mL); Ki [16]: 1700 nM; half-life [17]: 5.1 h; clearance [18]: 62 mL/min/kg; efflux ratio [19]: 2.4; half-life [20]: 6.2 h; half-life [21]: 1.2 h; Activity (Mus musculus [22]): Active; bioavailability [23]: 46%; bioavailability [24]: 67%; IC50 [25]: 1000 nM
